Assay results taken from PMC8457121, “From Kinase Inhibitors to Multitarget Ligands as Powerful Drug Leads for Alzheimer's Disease using Protein‐Templated Synthesis” (Angewandte Chemie (International Ed. in English), 2021).

Legend:
BACE1 [1] = target: T1, BACE1 (Homo sapiens, UniProt P56817); assay: BACE1 enzymatic assay (FRET); assay type: biochemical
Experimental: BACE1 enzymatic assay. BACE1 in vitro assays were carried out using FRET.
μM) carrying the Swedish mutation and containing a rhodamine as a fluorescence donor and a quencher acceptor at each end was used. The intact substrate is weakly fluorescent and becomes highly fluorescent upon enzymatic cleavage.
The assays were conducted in 50 mM sodium acetate buffer, pH 4.5, in a final

BACE1 [2] = target: T1, BACE1; assay: Evaluation of BACE inhibitors kinetics (Lineweaver-Burk); assay type: biochemical; details: different concentrations of substrate and compound
Experimental: enzyme concentration (1 U/mL). Inhibitor screening at 10 μM. The mixture was incubated for 60 min at 25 °C under dark conditions and then stopped with 2.5 M sodium acetate. Fluorescence was measured with a FLUOstar Optima (BMG
Labtechnologies GmbH, Offenburg, Germany) microplate reader at 545 nm excitation and 585 nm emission.
Evaluation of BACE Inhibitors Kinetics. To evaluate the mechanism of BACE1 inhibition of the compounds, substrate-dependent kinetic experiments were performed. BACE activity were measured at five different concentrations substrate (1000 -62,5 µM) in the absence or presence of the select inhibitor at two different concentrations. The results are presented as double reciprocal Lineweaver−Burk plots (1/V vs 1/[S]) Figure S1.
Cell culture and treatments. SK-N-MC cells stably expressing the human isoform APP695 (SK-APP cell line D1; SKAPP-D1) were generated by transfection of SK-N-MC cells with a pCDNA3-APP expression vector, and kindly provided by Dr. MJ Bullido. These cells were cultured in DMEM (Thermo Fisher) medium supplemented with 10% FBS (Thermo Fisher), 1 mM glutamine (Sigma-Aldrich), and 100 unit/ml penicillin (Lonza) and […] streptomycin (Lonza).
Cell cultures were maintained in a 5% CO2, humidified atmosphere at 37 °C. […]

T1 sequence (P56817 46-501): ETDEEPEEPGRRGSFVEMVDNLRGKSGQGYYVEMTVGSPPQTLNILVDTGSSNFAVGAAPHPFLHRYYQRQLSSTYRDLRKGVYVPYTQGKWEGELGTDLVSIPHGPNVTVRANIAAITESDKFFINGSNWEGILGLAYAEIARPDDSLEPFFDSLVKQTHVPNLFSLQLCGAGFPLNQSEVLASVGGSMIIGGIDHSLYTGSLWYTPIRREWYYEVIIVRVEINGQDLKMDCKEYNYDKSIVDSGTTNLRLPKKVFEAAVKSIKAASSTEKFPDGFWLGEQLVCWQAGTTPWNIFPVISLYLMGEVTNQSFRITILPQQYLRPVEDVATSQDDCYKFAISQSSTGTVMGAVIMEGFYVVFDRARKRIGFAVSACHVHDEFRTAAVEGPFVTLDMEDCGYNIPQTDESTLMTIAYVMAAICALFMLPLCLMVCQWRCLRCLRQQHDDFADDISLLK

IC50 (BACE1 [1]): 3.72 µM
Behavior in the inhibition of BACE1 (Lineweaver–Burk double reciprocal plot) (BACE1 [2]): substrate‐competitive
Compound: O=C(Nc1nc2ccccc2s1)c1ccc(Cn2cc(COc3ccc(C(=O)Nc4nc5ccccc5s4)cc3)nn2)cc1 [compound 8]
